Test results taken from ChEMBL document CHEMBL1201862, “PubChem BioAssay data set” (2004).
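A five-concentration, 48-hour dose response in 96-well plates underlies each endpoint, interpolated linearly between surrounding concentrations. Abbreviation: GI50, concentration required for 50% inhibition of growth.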 Activity calls are given as the source filed them. Cut-off read from the data, not from the text of the source: active = GI50 up to about 1.1 µM and inactive = higher.

Legend:
Experiment in all cases: DTP human tumour cell line panel, 48 h
PC-3 = test system: PC-3
HCT-15 = test system: HCT-15
NCI-H23 = test system: NCI-H23
786-0 = test system: 786-0
BT-549 = test system: BT-549
MDA-MB-231 = test system: MDA-MB-231
DU-145 = test system: DU-145
MDA-MB-435 = test system: MDA-MB-435
A498 = test system: A498
UACC-257 = test system: UACC-257
NCI-H460 = test system: NCI-H460
OVCAR-3 = test system: OVCAR-3
SF-268 = test system: SF-268
MDA-N = test system: MDA-N
RPMI-8226 = test system: RPMI-8226
SF-539 = test system: SF-539
HOP-92 = test system: HOP-92
NCI-H522 = test system: NCI-H522
SK-OV-3 = test system: SK-OV-3
SNB-75 = test system: SNB-75
LOX IMVI = test system: LOX IMVI
A549 = test system: A549
T47D = test system: T47D
SK-MEL-28 = test system: SK-MEL-28
MOLT-4 = test system: MOLT-4
M14 = test system: M14
COLO 205 = test system: COLO 205
SN12C = test system: SN12C
EKVX = test system: EKVX
Malme-3M = test system: Malme-3M
OVCAR-4 = test system: OVCAR-4
UACC-62 = test system: UACC-62
OVCAR-8 = test system: OVCAR-8
KM12 = test system: KM12
CCRF-CEM = test system: CCRF-CEM
IGROV-1 = test system: IGROV-1
ACHN = test system: ACHN
SK-MEL-2 = test system: SK-MEL-2
HT-29 = test system: HT-29
HCT-116 = test system: HCT-116
MCF7 = test system: MCF7
NCI/ADR-RES = test system: NCI/ADR-RES
TK-10 = test system: TK-10
SW-620 = test system: SW-620
OVCAR-5 = test system: OVCAR-5
RXF 393 = test system: RXF 393
SNB-19 = test system: SNB-19
U-251 = test system: U-251
Hs-578T = test system: Hs-578T
K562 = test system: K562
HL-60 = test system: HL-60
HOP-62 = test system: HOP-62
UO-31 = test system: UO-31
SF-295 = test system: SF-295
SK-MEL-5 = test system: SK-MEL-5
CAKI-1 = test system: CAKI-1
NCI-H226 = test system: NCI-H226
HCC 2998 = test system: HCC 2998

Compound: COc1ccc2nc(NCN3C(=O)c4ccccc4C3=O)sc2c1
- GI50 (PC-3): > 100 µM (inactive)
- GI50 (HCT-15): > 100 µM
- GI50 (NCI-H23): > 100 µM (inactive)
- GI50 (786-0): > 100 µM (inactive)
- GI50 (BT-549): > 100 µM (inactive)
- GI50 (MDA-MB-231): > 100 µM (inactive)
- GI50 (DU-145): > 100 µM (inactive)
- GI50 (MDA-MB-435): > 100 µM (inactive)
- GI50 (A498): > 100 µM (inactive)
- GI50 (UACC-257): > 100 µM (inactive)
- GI50 (NCI-H460): > 100 µM (inactive)
- GI50 (OVCAR-3): > 100 µM (inactive)
- GI50 (SF-268): > 100 µM (inactive)
- GI50 (MDA-N): > 100 µM (inactive)
- GI50 (RPMI-8226): > 100 µM (inactive)
- GI50 (SF-539): > 100 µM (inactive)
- GI50 (HOP-92): > 100 µM (inactive)
- GI50 (NCI-H522): > 100 µM (inactive)
- GI50 (SK-OV-3): > 100 µM (inactive)
- GI50 (SNB-75): > 100 µM (inactive)
- GI50 (LOX IMVI): > 100 µM (inactive)
- GI50 (A549): > 100 µM (inactive)
- GI50 (T47D): > 100 µM (inactive)
- GI50 (SK-MEL-28): > 100 µM (inactive)
- GI50 (MOLT-4): > 100 µM (inactive)
- GI50 (M14): > 100 µM (inactive)
- GI50 (COLO 205): > 100 µM (inactive)
- GI50 (SN12C): > 100 µM (inactive)
- GI50 (EKVX): > 100 µM (inactive)
- GI50 (Malme-3M): > 100 µM (inactive)
- GI50 (OVCAR-4): > 100 µM (inactive)
- GI50 (UACC-62): > 100 µM (inactive)
- GI50 (OVCAR-8): > 100 µM (inactive)
- GI50 (KM12): > 100 µM (inactive)
- GI50 (CCRF-CEM): > 100 µM (inactive)
- GI50 (IGROV-1): > 100 µM (inactive)
- GI50 (ACHN): > 100 µM (inactive)
- GI50 (SK-MEL-2): > 100 µM (inactive)
- GI50 (HT-29): > 100 µM (inactive)
- GI50 (HCT-116): > 100 µM (inactive)
- GI50 (MCF7): > 100 µM (inactive)
- GI50 (NCI/ADR-RES): > 100 µM (inactive)
- GI50 (TK-10): > 100 µM (inactive)
- GI50 (SW-620): > 100 µM (inactive)
- GI50 (OVCAR-5): > 100 µM (inactive)
- GI50 (RXF 393): > 100 µM (inactive)
- GI50 (SNB-19): > 100 µM (inactive)
- GI50 (U-251): > 100 µM (inactive)
- GI50 (Hs-578T): > 100 µM (inactive)
- GI50 (K562): > 100 µM (inactive)
- GI50 (HL-60): > 100 µM (inactive)
- GI50 (HOP-62): > 100 µM (inactive)
- GI50 (UO-31): > 100 µM (inactive)
- GI50 (SF-295): > 100 µM (inactive)
- GI50 (SK-MEL-5): > 100 µM (inactive)

Compound: N#Cc1nnn(-c2ccccc2)c1O
- GI50 (PC-3): > 100 µM (inactive)
- GI50 (HCT-15): > 100 µM
- GI50 (NCI-H23): > 100 µM (inactive)
- GI50 (786-0): > 100 µM (inactive)
- GI50 (BT-549): > 100 µM (inactive)
- GI50 (CAKI-1): > 100 µM (inactive)
- GI50 (MDA-MB-231): > 100 µM (inactive)
- GI50 (DU-145): > 100 µM (inactive)
- GI50 (MDA-MB-435): > 100 µM (inactive)
- GI50 (A498): > 100 µM (inactive)
- GI50 (UACC-257): > 100 µM (inactive)
- GI50 (OVCAR-3): > 100 µM (inactive)
- GI50 (SF-268): > 100 µM (inactive)
- GI50 (MDA-N): > 100 µM (inactive)
- GI50 (RPMI-8226): > 100 µM (inactive)
- GI50 (SF-539): > 100 µM (inactive)
- GI50 (NCI-H522): > 100 µM (inactive)
- GI50 (SK-OV-3): > 100 µM (inactive)
- GI50 (SNB-75): > 100 µM (inactive)
- GI50 (LOX IMVI): > 100 µM (inactive)
- GI50 (A549): > 100 µM (inactive)
- GI50 (T47D): > 100 µM (inactive)
- GI50 (SK-MEL-28): > 100 µM (inactive)
- GI50 (MOLT-4): > 100 µM (inactive)
- GI50 (M14): > 100 µM (inactive)
- GI50 (COLO 205): > 100 µM (inactive)
- GI50 (SN12C): > 100 µM (inactive)
- GI50 (EKVX): > 100 µM (inactive)
- GI50 (Malme-3M): > 100 µM (inactive)
- GI50 (OVCAR-4): > 100 µM (inactive)
- GI50 (UACC-62): > 100 µM (inactive)
- GI50 (OVCAR-8): > 100 µM (inactive)
- GI50 (KM12): > 100 µM (inactive)
- GI50 (IGROV-1): > 100 µM (inactive)
- GI50 (ACHN): > 100 µM (inactive)
- GI50 (SK-MEL-2): > 100 µM (inactive)
- GI50 (HT-29): > 100 µM (inactive)
- GI50 (HCT-116): > 100 µM (inactive)
- GI50 (MCF7): > 100 µM (inactive)
- GI50 (NCI/ADR-RES): > 100 µM (inactive)
- GI50 (TK-10): > 100 µM (inactive)
- GI50 (SW-620): > 100 µM (inactive)
- GI50 (NCI-H226): > 100 µM (inactive)
- GI50 (OVCAR-5): > 100 µM (inactive)
- GI50 (RXF 393): > 100 µM (inactive)
- GI50 (SNB-19): > 100 µM (inactive)
- GI50 (U-251): > 100 µM (inactive)
- GI50 (Hs-578T): > 100 µM (inactive)
- GI50 (K562): > 100 µM (inactive)
- GI50 (HL-60): > 100 µM (inactive)
- GI50 (HOP-62): > 100 µM (inactive)
- GI50 (UO-31): > 100 µM (inactive)
- GI50 (SF-295): > 100 µM (inactive)
- GI50 (HCC 2998): > 100 µM (inactive)
- GI50 (SK-MEL-5): > 100 µM (inactive)
